Measurements as given in patent publication US20100056445A1, “ADIPONECTIN FOR THE TREATMENT AND DIAGNOSIS OF ALBUMINURIA” (THOMAS JEFFERSON UNIVERSITY, priority 2006, published 2010).
“Also recorded” adds a separate entry of the source.

Legend:
podocyte monolayer = assay: Albumin permeability across differentiated podocyte monolayer (Transwell); type: cell-based, mouse; conditions: for Albumin permeability across podocyte monolayer: 1 mM; for Effect on the protective effect of adiponectin on podocyte permeability: ARA-A 1 mM pre-treatment prior to addition of adiponectin; for Permeability of albumin across a podocyte monolayer: adiponectin (globular or full length) 3 μg/ml, serum free, vs. control
Method: Podocyte cell culture: Conditionally immortalized mouse podocytes were kindly provided by Dr. Peter Mundel (Albert Einstein College of Medicine, Bronx, N.Y.) and were cultured as previously described (27). The cells harbor a temperature-sensitive variant of the SV40 large T antigen (tsA58) that is inducible by γ-interferon and stable at 33° C. but rapidly degraded at 37° C. (27). At 33° C., the large T antigen allows for cellular proliferation. The proliferating cells are maintained in collagen I—coated flasks in RPMI-1640 media supplemented with 10% FBS and 10 units/ml mouse recombinant γ-interferon. When the cells have reached confluence, they are passaged and allowed to differentiate at 37° C. for 8-10 days without γ-interferon in Dulbecco's modified Eagle's medium containing 5.5 mmol/l glucose and 5% FCS. For the permeability assay a modification of a previously published protocol (28) was adopted. Differentiated podocytes (0.2×10^6 podocytes/well) plated on collagen coated 24 well Transwell plates (Corning) were serum-starved ovenight when confluent. Cells were then modulated with globular adiponectin (PepROTech Inc.) with or without 1 mM adenosine 9-p-D-arabinofuranoside (ARA-A) (Sigma, St. Louis, Mo.), for 24 h. Cells were then washed twice with PBS supplemented with 1 mM MgCl2 and 1 mM CaCl2. The upper compartment was refilled with 0.25 ml RPMI 1640 alone and the lower compartment with 0.5 ml RPMI 1640 supplemented with 40 mg/ml BSA and incubated for 2 hour at 37° C. Total protein concentration in the upper compartment was determined using a Bio-Rad protein assay (Bio-Rad Laboratories, Hercules, Calif.).

Ad−/− mice = assay: Urinary hydrogen peroxide (Amplex red) in Ad−/− mice; type: in vivo, mouse; conditions: 4 month-old Ad−/− mice
Method: (§1) Interventional animal studies: The mice were treated with 25 μg of recombinant human globular domain adiponectin gAd (PepROTech, Rocky Hill, N.J.), administered 25 μg/mouse twice a day for 10 consecutive days or full-length adiponectin (fAd) was administered using an AAV vector (AAV2/8 CMV fAd virus 4×1011 GC/mouse for 10 days). A separate group of Ad−/− mice were treated with 5-aminoimidazole-4-carboxamide-1-beta-D-ribonucleoside (AICAR) with a single i.p. dose of 300 mg/kg. The control animals were given PBS alone or control AAV. 24-hour urines from each mouse were collected before treatment and on the last day of the treatment period. The urine albumin and creatinine were measured with a mouse Albuwell ELISA kit and a Creatinine Companion kit (Exocell, Philadelphia, Pa.) (26, 25). As an index of oxidant stress timed urine collections were also analyzed for hydrogen peroxide by Amplex red assay (Invitrogen/Molecular Probes, Carlsbad, Calif.) following the manufacturer's protocol. Portions of liver, muscle and kidney was snap-frozen in liquid nitrogen for RNA isolation. An additional aliquot of normal kidney was frozen in OCT for immunofluorescent staining. […]

Nox4 = Nox4 protein in cultured podocytes (immunoblot, confocal); type: cell-based, mouse; conditions: AICAR; podocytes grown in high glucose (HG)
[1] = tested on: Adiponectin KO (Ad−/−) mice; assay: Urine albumin/creatinine ratio in treated adiponectin KO mice; type: in vivo, mouse; conditions: Ad−/− mice at 4 months of age
Method: Adiponectin administration and animal studies: The mice were treated with 25 μg of recombinant human globular domain adiponectin (gAd; PepROTech, Rocky Hill, N.J.) subcutaneously twice daily for 10 consecutive days. The control animals were given PBS alone. 24-hour urines from each mouse were collected twice: one week before the injections and on the last day of the injections. The urine albumin and creatinine were measured with a mouse Albuwell ELISA kit and a Creatinine Companion kit (Exocell, Philadelphia, Pa.) (25,26). The mice were sacrificed five hours after the final gAd injection under anesthesia. Portions of kidney cortex were fixed in buffered formalin and embedded in paraffin. A portion of kidney cortical tissue was cut into 1 mm^3 pieces and fixed in 2.5% glutaraldehyde
as §1

## NC(=O)c1ncn([C@@H]2O[C@H](CO)[C@@H](O)[C@H]2O)c1N [AICAR, 5-aminoimidazole-4-carboxamide-1-beta-D-ribonucleoside, reference compound]
Podocyte monolayer; AMPK activator AICAR
  Albumin permeability across podocyte monolayer: decreased
Ad−/− mice; AICAR single i.p. dose of 300 mg/kg
  Urinary levels of hydrogen peroxide: reduced
Nox4
  Podocyte Nox4 protein: reduced Nox4 protein levels to a similar degree as adiponectin
[1]; AICAR single i.p. dose of 300 mg/kg, 300 mg/kg
  Urine albumin/creatinine ratio (albuminuria): restored albuminuria; also recorded: significantly decreased urine albumin/creatinine to the control values seen in WT mice

## Nc1ncnc2c1ncn2[C@@H]1O[C@H](CO)[C@@H](O)[C@@H]1O [ARA-A, adenosine 9-p-D-arabinofuranoside]
Podocyte monolayer; AMPK inhibitor ARA-A alone
  Albumin permeability across podocyte monolayer: increased permeability to albumin
Podocyte monolayer; AMPK inhibitor ARA-A alone, listed as ARA
  Albumin permeability across podocyte monolayer: increased
Podocyte monolayer
  Effect on the protective effect of adiponectin on podocyte permeability: prevented the protective effects of adiponectin on podocyte permeability; also recorded: increased permeability to albumin; also recorded: blocked protective effect of adiponectin
Podocyte monolayer; listed as ARA
  Effect on the protective effect of adiponectin on podocyte permeability: blocked

B1: fAd: full-length adiponectin; in mice administered using an AAV vector (AAV2/8 CMV fAd virus) (protein, listed as Homo sapiens)
chain: MLLLGAVLLLLALPGHDQETTTQGPGVLLPLPKGACTGWMAGIPGHPGHNGAPGRDGRDGTPGEKGEKGDPGLIGPKGDIGETGVPGAEGPRGFPGIQGRKGEPGEGAYVYRSAFSVGLETYVTIPNMPIRFTKIFYNQQNHYDGSTGKFHCNIPGLYYFAYHITVYMKDVKVSLFKKDKAMLFTYDQYQENNVDQASGSVLLHLEVGDQVWLQVYGEGERNGLYADNDNDSTFTGFLLYHDTN
modifications: delivered via AAV2/8 CMV vector
Podocyte monolayer
  Permeability of albumin across a podocyte monolayer: reduced
Podocyte monolayer; listed as full length adiponectin
  Permeability of albumin across a podocyte monolayer: significantly reduced
Ad−/− mice; fAd by AAV vector, 10 days
  Urinary levels of hydrogen peroxide: reduced
[1]; fAd by AAV vector, 10 days
  Urine albumin/creatinine ratio (albuminuria): significantly decreased urine albumin/creatinine to the control values seen in WT mice
